In patent publication US9914730B2, “Azaquinazoline inhibitors of Atypical protein Kinase C” (Ignyta, Inc., priority 2012, dated 2018):

These compounds were tested against T1, full-length human PKCι (Homo sapiens, UniProt P41743) (assay: PKCι IC50 IMAP assay, full-length PKCι at 150 μM ATP). Conditions: read-out: IC50 in IMAP assay against full length PKCi at 150 μM ATP.
T1 construct: Recombinant, full-length human PKCι expressed in Sf21 insect cells is also commercially available; purchased; host or cells: Sf21 insect cells
T1 sequence (P41743 1-596): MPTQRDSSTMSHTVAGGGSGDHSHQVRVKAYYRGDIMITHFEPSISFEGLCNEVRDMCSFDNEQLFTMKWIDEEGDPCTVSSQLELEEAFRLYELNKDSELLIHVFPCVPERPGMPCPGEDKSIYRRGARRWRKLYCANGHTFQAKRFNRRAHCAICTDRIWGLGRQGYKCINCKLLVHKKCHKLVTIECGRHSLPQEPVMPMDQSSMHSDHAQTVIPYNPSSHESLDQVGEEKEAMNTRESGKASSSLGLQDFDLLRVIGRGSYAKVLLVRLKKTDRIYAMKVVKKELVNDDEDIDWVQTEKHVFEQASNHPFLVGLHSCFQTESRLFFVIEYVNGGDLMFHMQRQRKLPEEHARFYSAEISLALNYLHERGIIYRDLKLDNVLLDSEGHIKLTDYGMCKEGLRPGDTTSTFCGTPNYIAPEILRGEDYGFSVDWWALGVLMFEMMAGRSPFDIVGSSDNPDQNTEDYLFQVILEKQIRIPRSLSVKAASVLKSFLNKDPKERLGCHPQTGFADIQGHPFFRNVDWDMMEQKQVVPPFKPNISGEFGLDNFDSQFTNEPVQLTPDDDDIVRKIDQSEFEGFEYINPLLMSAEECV
Format: biochemical
In short: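 Dose-response IC50 values come from IMAP fluorescence polarisation after 60 min room-temperature turnover of 100 nM FAM peptide by ~15 pM insect-cell-expressed full-length PKCι at 150 μM ATP (5× KM^APP), normalised to no-compound and no-enzyme controls.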

Row | SMILES | IC50
1 | Cc1ncccc1Nc1cc(-c2nc(N3CCNCC3)c3c(C4CC4)cncc3n2)ccn1 [Example 544, [4-(5-Cyclopropyl-4-piperazin-1-yl-pyrido[3,4-d]pyrimidin-2-yl)-pyridin-2-yl]-(2-methyl-pyridin-3-yl)-amine] | < 100 nM
2 | FC(F)(F)c1cc2c(-c3nc(SC4CCNCC4)c4c(C5CC5)cncc4n3)ccnc2[nH]1 [Example 2134, 5-Cyclopropyl-4-(piperidin-4-ylsulfanyl)-2-(2-trifluoromethyl-1H-pyrrolo[2,3-b]pyridin-4-yl)-pyrido[3,4-d]pyrimidine] | < 100 nM
3 | CCOC(=O)N1CCN(c2nc(-c3ccnc4[nH]c(C(F)(F)F)cc34)nc3cncc(C4CC4)c23)CC1 [Example 1224, 4-[5-Cyclopropyl-2-(2-trifluoromethyl-1H-pyrrolo[2,3-b]pyridin-4-yl)-pyrido[3,4-d]pyrimidin-4-yl]-piperazine-1-carboxylic acid ethyl ester] | 10000 to 40000 nM
4 | COc1cncc2nc(-c3ccnc(Nc4nc(C5CC5)cs4)c3)nc(N3CCNCC3)c12 [Example 204, (4-Cyclo-propyl-thiazol-2-yl)-[4-(5-methoxy-4-piperazin-1-yl-pyrido[3,4-d]pyrimidin-2-yl)-pyridin-2-yl]-amine] | < 100 nM
5 | Fc1cc(F)c(F)c(Nc2cc(-c3nc(N[C@@H]4CCNC4)c4c(C5CC5)cncc4n3)ccn2)n1 [Example 2054, {5-Cyclopropyl-2-[2-(3,4,6-trifluoro-pyridin-2-ylamino)-pyridin-4-yl]-pyrido[3,4-d]pyrimidin-4-yl}-(R)-pyrrolidin-3-yl-amine] | < 100 nM
6 | Fc1cccc(F)c1Nc1cc(-c2nc(N3CCNC4CC43)c3c(C4CC4)cncc3n2)ccn1 (stereo not drawn) [Example 538, {4-[5-Cyclopropyl-4-(2,5-diaza-bicyclo-[4.1.0]hept-2-yl)-pyrido[3,4-d]pyrimidin-2-yl]-pyridin-2-yl}-(2,6-difluoro-phenyl)-amine] | < 100 nM
7 | CN(c1nc(-c2ccnc(Nc3c(F)cccc3F)c2)nc2cncc(C3CC3)c12)[C@@H]1CCNC1 [Example 2057, {5-Cyclopropyl-2-[2-(2,6-difluoro-phenylamino)-pyridin-4-yl]-pyrido[3,4-d]pyrimidin-4-yl}-methyl-(R)-pyrrolidin-3-yl-amine] | < 100 nM
8 | Fc1cc(C2CC2)cnc1Nc1cc(-c2nc(N3CCNCC3)c3c(C4CC4)cncc3n2)ccn1 [Example 812, (5-Cyclopropyl-3-fluoro-pyridin-2-yl)-[4-(5-cyclopropyl-4-piperazin-1-yl-pyrido[3,4-d]pyrimidin-2-yl)-pyridin-2-yl]-amine] | < 100 nM
9 | Fc1cccc(F)c1Nc1cc(-c2nc(N3CCNC(CC(F)(F)F)C3)c3c(C4CC4)cncc3n2)ccn1 (stereo not drawn) [Example 642, (4-{5-Cyclopropyl-4-[3-(2,2,2-trifluoro-ethyl)-piperazin-1-yl]-pyrido[3,4-d]pyrimidin-2-yl}-pyridin-2-yl)-(2,6-difluoro-phenyl)-amine] | 100 to 1000 nM
10 | COc1cncc2nc(-c3ccnc(Nc4cc(C#N)ccn4)c3)nc(N3CCC[C@H](O)C3)c12 [Example 426, 2-{4-[4-((S)-3-Hydroxy-piperidin-1-yl)-5-methoxy-pyrido[3,4-d]pyrimidin-2-yl]-pyridin-2-ylamino}-isonicotinonitrile] | 1000 to 10000 nM
11 | COc1cncc2nc(-c3ccnc(Nc4ccccc4F)c3)nc(N3CCNCC3)c12 [Example 206, (2-Fluoro-phenyl)-[4-(5-methoxy-4-piperazin-1-yl-pyrido[3,4-d]pyrimidin-2-yl)-pyridin-2-yl]-amine] | < 100 nM
12 | OC1CCN(c2nc(-c3ccnc(Nc4cccc(N5CCNCC5)c4)c3)nc3cncc(C4CC4)c23)CC1 [Example 729, 1-{5-Cyclopropyl-2-[2-(3-piperazin-1-yl-phenylamino)-pyridin-4-yl]-pyrido[3,4-d]pyrimidin-4-yl}-piperidin-4-ol] | < 100 nM
13 | CN1CCC(N(C)c2nc(-c3ccnc(Nc4c(F)cccc4F)c3)nc3cncc(C4CC4)c23)CC1 [Example 2083, {5-Cyclopropyl-2-[2-(2,6-difluoro-phenylamino)-pyridin-4-yl]-pyrido[3,4-d]pyrimidin-4-yl}-methyl-(1-methyl-piperidin-4-yl)-amine] | < 100 nM
14 | CN(C)CCCCNc1nc(-c2ccnc(Nc3c(F)cccc3F)c2)nc2cncc(C3CC3)c12 [Example 803, N-{5-Cyclopropyl-2-[2-(2,6-difluoro-phenylamino)-pyridin-4-yl]-pyrido[3,4-d]pyrimidin-4-yl}-N′,N′-dimethyl-butane-1,4-diamine] | 100 to 1000 nM
15 | CP(C)(=O)c1ccc(Nc2cc(-c3nc(N4CCNCC4)c4c(C5CC5)cncc4n3)ccn2)cc1 [Example 549, [4-(5-Cyclopropyl-4-piperazin-1-yl-pyrido[3,4-d]pyrimidin-2-yl)-pyridin-2-yl]-[4-(dimethyl-phosphinoyl)-phenyl]-amine] | < 100 nM
16 | CCn1cc(Cl)c(Nc2cc(-c3nc(N4CCNCC4)c4c(C5CC5)cncc4n3)ccn2)n1 [Example 2015, (4-Chloro-1-ethyl-1H-pyrazol-3-yl)-[4-(5-cyclopropyl-4-piperazin-1-yl-pyrido[3,4-d]pyrimidin-2-yl)-pyridin-2-yl]-amine] | < 100 nM
17 | COc1cncc2nc(-c3ccncc3)nc(N3CCNC(CF)C3)c12 (stereo not drawn) [Example 54, 3-(fluoromethyl)-1-[5-methoxy-2-(pyridin-4-yl)-pyrido[3,4-d]-pyrimidin-4-yl]-piperazine] | 1000 to 10000 nM
18 | COc1cncc2nc(-c3ccnc(NC(=O)Cc4cccc(N)c4)c3)nc(N[C@@H]3CCNC3)c12 [Example 325, 2-(3-Amino-phenyl)-N-{4-[5-methoxy-4-((R)-pyrrolidin-3-ylamino)-pyrido[3,4-d]pyrimidin-2-yl]-pyridin-2-yl}-acetamide] | 10000 to 40000 nM
19 | Clc1cc(-c2nc(N3CCN[C@@H](COCc4ccccc4)C3)c3c(C4CC4)cncc3n2)ccn1 [Example 733, 4-((R)-3-Benzyloxymethyl-piperazin-1-yl)-2-(2-chloro-pyridin-4-yl)-5-cyclopropyl-pyrido[3,4-d]pyrimidine] | 1000 to 10000 nM
20 | CC(C)(C)c1cc2c(-c3nc(N4CCNCC4)c4c(Br)cncc4n3)ccnc2[nH]1 [Example 2120, 5-Bromo-2-(2-tert-butyl-1H-pyrrolo[2,3-b]pyridin-4-yl)-4-piperazin-1-yl-pyrido[3,4-d]pyrimidine] | < 100 nM
21 | COc1cncc2nc(-c3ccnc(Nc4ccccc4)c3)nc(N3CCN[C@@H](C(C)C)C3)c12 [Example 224, {4-[4-((S)-3-Isopropyl-piperazin-1-yl)-5-methoxy-pyrido[3,4-d]pyrimidin-2-yl]-pyridin-2-yl}-phenyl-amine] | < 100 nM
22 | Fc1cc(F)c(Nc2cc(-c3nc(N4CCNCC4)c4c(C5CC5)cncc4n3)ccn2)nc1F [Example 680] | < 100 nM
23 | Fc1cc(C2CCC2)cnc1Nc1cc(-c2nc(N3CCNCC3)c3c(C4CC4)cncc3n2)ccn1 [Example 2013, (5-Cyclobutyl-3-fluoro-pyridin-2-yl)-[4-(5-cyclopropyl-4-piperazin-1-yl-pyrido[3,4-d]pyrimidin-2-yl)-pyridin-2-yl]-amine] | < 100 nM
24 | COc1cncc2nc(-c3ccncc3)nc(N3CCNCC3)c12 [Example 31, 1-[5-methoxy-2-(pyridin-4-yl)-pyrido[3,4-d]-pyrimidin-4-yl]-piperazine] | 100 to 1000 nM
25 | Fc1ncc(C2CC2)c2c(N3CCNCC3)nc(-c3ccnc4[nH]c(C(F)(F)F)cc34)nc12 [Example 2102, 5-Cyclopropyl-8-fluoro-4-piperazin-1-yl-2-(2-trifluoromethyl-1H-pyrrolo[2,3-b]pyridin-4-yl)-pyrido[3,4-d]pyrimidine] | < 100 nM
26 | COc1cncc2nc(-c3ccnc(NC(C)=O)c3)nc(N3CCNCC3)c12 [Example 214, N-[4-(5-Methoxy-4-piperazin-1-yl-pyrido[3,4-d]pyrimidin-2-yl)-pyridin-2-yl]-acetamide] | < 100 nM
27 | Fc1cccc(Nc2cc(-c3nc(N4CCNC(C(F)(F)F)C4)c4c(C5CC5)cncc4n3)ccn2)n1 (stereo not drawn) [Example 268, {4-[5-Cyclopropyl-4-(3-trifluoromethyl-piperazin-1-yl)-pyrido[3,4-d]pyrimidin-2-yl]-pyridin-2-yl}-(6-fluoro-pyridin-2-yl)-amine] | 100 to 1000 nM
28 | N#Cc1ccc(CC(=O)Nc2cc(-c3nc(N[C@@H]4CCNC4)c4ccncc4n3)ccn2)cc1 [Example 349, 2-(4-Cyano-phenyl)-N-{4-[4-((R)-pyrrolidin-3-ylamino)-pyrido[3,4-d]pyrimidin-2-yl]-pyridin-2-yl}-acetamide] | < 100 nM
29 | CC(C)(c1ccccc1)c1cc2c(-c3nc(N4CCNCC4)c4c(C5CC5)cncc4n3)ccnc2[nH]1 [Example 2086, 5-Cyclopropyl-2-[2-(1-methyl-1-phenyl-ethyl)-1H-pyrrolo[2,3-b]pyridin-4-yl]-4-piperazin-1-yl-pyrido[3,4-d]pyrimidine] | < 100 nM
30 | Cc1cc2c(-c3nc(N4CCNC(C(F)(F)F)C4)c4c(C5CC5)cncc4n3)ccnc2[nH]1 (stereo not drawn) [Example 1215, 5-Cyclopropyl-2-(2-methyl-1H-pyrrolo[2,3-b]pyridin-4-yl)-4-(3-trifluoromethyl-piperazin-1-yl)-pyrido[3,4-d]pyrimidine] | < 100 nM
